For data set [1], the system named is prostaglandin synthesis. Conditions: acknowledged / regarded; cited from earlier work.
Data set [2] concerns HT-29 human colon carcinoma cells. Nature of the data set: HT-29 tumor cell growth inhibition / cytotoxicity (Sulforhodamine B Assay). In kind it is cell-based. The note with it: 168 h, HT-29, seven days continuous exposure. As for the experimental part:
(§1) The compounds of this invention were assayed for their effect on the human colon carcinoma cell lines HT-29 and SW-480 obtained from ATCC (Rockville, Md.), representative of precancerous lesions to ascertain the degree of tumor growth inhibition following treatment with compounds of this invention. The cell line employed for these experiments is well characterized, and is used by the United States National Cancer Institute in their screening program for new anticancer drugs. Growth inhibition of this cell line is thought to be indicative of a benefit on precancerous lesions and neoplasms.
Tumor cell cytotoxicity was assessed using the Sulforhodamine B Assay. In this assay, HT-29 tumor cells were plated in 96-well plates and treated with drug-containing media for seven days (continuous exposure). At the end of the exposure period, the cell were fixed and stained with sulforhodamine B (a pink fluorescent dye). The dye was then solubilized, and the optical density of the resulting pink solution determined on a 96-well plate reader. The mean dye intensity of the treated wells was then divided by the mean dye intensity in the control wells (6 wells of each) to determine the effect of the drug on the cells. Dye intensity is proportional to the number of cells or amount of protein per well. The resultant "percent of control" value then represents the degree of growth inhibition caused by the drug.
For each experiment, an IC50 value was determined and used for comparative purposes. This value is equivalent to the concentration of drug needed to inhibit tumor cell growth by 50%. IC50 values were obtained graphically by connecting the mean values for each drug concentration tested. Each experiment included at least six wells per drug concentration. Concentration was plotted on a log scale on the X-axis.

In data set [3] the test system is SW-480 colon adenocarcinoma cells. Put plainly: Apoptosis: DNA fragmentation assay (Cell Death Detection ELISA plus). In kind it is cell-based. Conditions: Homo sapiens, SW480, SW-480, 48 hrs; for EC50: apoptosis. The protocol:
as §1
Apoptosis was measured based on the amount of fragmented DNA contained in cell lysates. Briefly, SW-480 colon adenocarcinoma cells were plated at a density of 10K cells/well in 180 μl to 96-well microtitre plates ("MTP"), and incubated for 24 hrs. Cells were then treated with 20 μl aliquots appropriately diluted compound, and allowed to incubate for 48 hrs.
After the incubation, samples were prepared according to the following steps. […] Samples were analyzed immediately, because storage at 4 C or […] reduces the ELISA-signals.
Samples were then processed according to a DNA fragmentation assay protocol, and dose-response curves were generated based on optical density readings. […] The assay is based on a quantitative sandwich-enzyme-immunoassay-principle using mouse monoclonal antibodies directed against DNA and histones, respectively. […]
According to the vendor, the assay works in the following fashion. […] After removal of unbound antibodies by a washing step, the amount of nucleosomes is quantified by the POD retained in the immunocomplex. POD is determined photometrically with ABTS® (2,2'-Azino-di[3-ethylbenzthiazolin-sulfonat])* as substrate.
Fold stimulation (FS=ODmax/ODveh), an indicator of apoptotic response, was determined for each compound data analysis software, or by estimates based on the effective concentration range of each compound (ECR=min. effective dose-min. dose to peak effect).
A general note: An ELISA detects its analyte on a solid surface through an enzyme-linked reagent.

A short description of data set [4]: Solubility remark in the HT-29 table. In kind it is physicochemical. The note with it: printed in the IC50 column of TABLE I.
For data set [5] the following is noted: sulfoxide itself, believed; cited from earlier work.
Data set [6] concerns polyps. Conditions: when the patient take the drug; cited from earlier work.

We go through eleven compounds from patent publication US6300346A, “Indenyl hydroxamic acids, (hydroxy) ureas and urethanes for treating patients with precancerous lesions” (Cell Pathways, Inc., priority 2000, dated 2001).

Usually IC50 stands for the concentration that gives 50% inhibition. A lower IC50 goes with higher potency. One may read the EC50 as the concentration needed to bring the measured effect to its halfway point.

As for `CSc1ccc(/C=C2/C(C)=C(CC(=O)O)c3cc(F)ccc32)cc1` [sulfide], the “activity as a prostaglandin (synthesis) inhibitor” value in data set [1] is “active moiety as a prostaglandin inhibitor”. Regarding `CC1=C(CC(=O)O)c2cc(F)ccc2/C1=C\c1ccc(S(C)(=O)=O)cc1` [sulfone], the “activity as a prostaglandin (synthesis) inhibitor” value in data set [1] is “inactive”. Consider `CC1=C(CNC(=O)OC(C)C)c2cc(F)ccc2/C1=C\c1ccc(S(C)(=O)=O)cc1` [Example 25, (Z)-N-{[5-Fluoro-2-methyl-1-(p-methylsulfonyl-benzylidene)-inden-3-yl]-methyl}-O-isopropyl urethane], for which the IC50 in data set [2] was in the range of 3.2 to 4 µM. Turning to `CC1=C(CNC(=O)NCCCN(C)C)c2cc(F)ccc2/C1=C\c1ccc(S(C)(=O)=O)cc1` [Example 22, (Z)-N-{[5-Fluoro-2-methyl-1-(p-methylsulfonyl-benzylidene)-inden-3-yl]-methyl}-N'-dimethylaminopropyl urea], the IC50 in data set [2] lay within 4.4 to 5.4 µM. Also, the EC50 in data set [3] was 75 µM. With `COC(=O)NCC1=C(C)/C(=C/c2ccc(S(C)(=O)=O)cc2)c2ccc(F)cc21` [Example 26, (Z)-N-{[5-Fluoro-2-methyl-1-(p-methylsulfonyl-benzylidene)-inden-3-yl]-methyl}-O-methyl urethane], the IC50 in data set [2] was 4.5 to 8 µM. Besides, the maximal fold induction in data set [3] (FS=ODmax/ODveh, read-out: Fold Stimulation) lay in the range of 5 to 6.8. In addition, the EC50 in data set [3] was 250 µM.

`CC1=C(CNC(=O)NCC(N)=O)c2cc(F)ccc2/C1=C\c1ccc(S(C)(=O)=O)cc1` [Example 24, (Z)-N-{[5-Fluoro-2-methyl-1-(p-methylsulfonyl-benzylidene)-inden-3-yl]-methyl}-N'-glycinamide urea]: in data set [4], the “solubility (reason for IC50 N/A)” value is “not very soluble”.

Consider `CCOC(=O)NCC1=C(C)/C(=C/c2ccc(S(C)(=O)=O)cc2)c2ccc(F)cc21` [Example 27, (Z)-N-{[5-Fluoro-2-methyl-1-(p-methylsulfonyl-benzylidene)-inden-3-yl]-methyl}-O-ethyl urethane], for which, in data set [2], it took 4.1 µM to reach half-maximal inhibition (IC50). On the same count and under the same terms, then `COCCOC(=O)NCC1=C(C)/C(=C/c2ccc(S(C)(=O)=O)cc2)c2ccc(F)cc21` [Example 28, (Z)-N-{[5-Fluoro-2-methyl-1-(p-methylsulfonyl-benzylidene)-inden-3-yl]-methyl}-O-methoxyethyl urethane], with 7.1 to 11 µM. Same read-out and setting: then `CC1=C(CNC(=O)NCc2ccccc2)c2cc(F)ccc2/C1=C\c1ccc(S(C)(=O)=O)cc1` [Example 23, (Z)-N-{[5-Fluoro-2-methyl-1-(p-methylsulfonyl-benzylidene)-inden-3-yl]-methyl}-N'-benzyl urea], with 1.6 to 3.2 µM. For the compound `CC1=C(CNC(=O)NC(C)C)c2cc(F)ccc2/C1=C\c1ccc(S(C)(=O)=O)cc1` [Example 21, (Z)-N-{[5-Fluoro-2-methyl-1-(p-methylsulfonylbenzylidene)inden-3-yl]-methyl}-N'-isopropyl urea], the “solubility (reason for IC50 N/A)” value in data set [4] is reported as “not very soluble”. In the case of `CC1=C(CC(=O)O)c2cc(F)ccc2/C1=C\c1ccc([S+](C)[O-])cc1` (stereo not drawn) [Sulindac, (Z)-5-fluoro-2-methyl-1-(4-methylsulfinylbenzylidene)inden-3-ylacetic acid], the “activity as an anti-arthritic agent” value in data set [5] was “inactive”. For the same compound, the effect on polyps entry in data set [6] is reported as “Polyps virtually disappear”.
